{
  "source": "patent EP0247900A1",
  "about": "“Topical methotrexate preparation for the treatment of hyperproliferative epithelial disease” (THE REGENTS OF THE UNIVERSITY OF CALIFORNIA, priority 1986, dated 1987)",
  "key": {"[1]": {"assay": "In vitro percutaneous penetration of MTX in glass diffusion cells", "description": "Methotrexate was obtained from Lederle Laboratories, Pearl River, NY. Methotrexate (3',5',7-^3H)sodium (250 mCi/mmol) was obtained from Amersham and prior to use was purified by chromatography on thin-layer cellulose plates in 0.006 M potassium phosphate buffer, pH 6.0. Vehicle N was obtained from the Neutrogena Corporation. Los Angeles, CA.\nThe percutaneous penetration of MTX was measured in glass diffusion cells as previously described. McCullough et al (1976) J Invest Derm 66:103-107. Excised human skin obtained from abdominoplasty was used for these studies. First, 0.5 ml containing 10 µCi methotrexate-^3H and cold methotrexate to give a final concentration of 2% in various vehicles was applied to the epidermal surface (0.2 ml/cm^2). A total of […] methotrexate was applied to each diffusion cell. The dermal reservoir contained phosphate buffered saline. Three diffusion cells were run for each vehicle. Diffusion cells were incubated with constant stirring at 28°C. Methotrexate penetration was followed at various time points up to 48 hr by liquid scintillation counting. The test solution was removed after the 48 hr incubation period, and the epidermal surface was rinsed three times with vehicle in which the drug being tested was dissolved. […] The epidermis was separated by heating the skin for 1 min on a hot plate at 60°C. MTX was extracted from the epidermis and dermis utilizing the techniques described by Werkheiser et al (1962) J Pharmacol Exp Ther 137:162-166, which specifically disassociates MTX from cellular bound proteins. The stratum corneum was removed by repeated stripping with cellophane tape until the skin glistened.\nIn vitro percutaneous penetration studies were carried out according to the methods of Example I with formulations of a topical gel containing about 3% Azone and various concentrations of MTX.\nEmploying the methods described in Example I, various vehicles containing 2% by weight of tritiated MTX were tested in vitro on human skin.\nAdditional studies with the mini-pig model, as described in Example IV, were conducted to test various carriers with different concentrations of MTX and Azone. Formulations were applied daily for 7 days. Three sites per treatment area were injected with ^3H-UdR. Autoradiographs were scored at 4 wk. Techniques as described in Examples I and II were employed to measure percutaneous penetration and DNA synthesis.\nVarious vehicle formulations were evaluated in vitro at various MTX concentrations for penetration of MTX into the epidermis. Penetration was evaluated as described in Example I. Unless otherwise noted, all vehicles were a gel formulation that contained 3% Azone."}, "epidermal DNA synthesis [2]": {"test_system": "epidermal DNA synthesis", "assay": "In vivo epidermal DNA synthesis (tritiated deoxyuridine incorporation) after topical MTX in hairless mice", "parameters": "species or system HRS/J albino hairless mice", "conditions": "for suppression of epidermal DNA synthesis in treated back skin: compared to Vehicle N treated control", "text": "Deoxyuridine (6-^3H) (25 Ci/mmol) was obtained from New England Nuclear. Other materials were obtained as described in Example I.\n(§1) HRS/J albino hairless mice, age 2-3 months, were used for these experiments. For induction of the […] fatty acid deficiency, 3-week-old animals were fed an essential fatty acid deficient diet (Teklad) for 60 days.\n(§2) Six to ten mice were used for each treatment group. Tritiated deoxyuridine was utilized as a precursor for assaying the effects of methotrexate on the de novo pathway for epidermal DNA synthesis. The incorporation of tritiated deoxyuridine into DNA depends on the normal functioning of dihydrofolate reductase which is blocked by methotrexate. At selected time points after single or repeated topical MTX applications, mice were injected IP with tritiated deoxyuridine (50-100 uCi) for measurement of epidermal DNA synthesis in treated backskin to determine the local effect of MTX. DNA synthesis was simultaneously measured in untreated abdominal skin of Vehicle N and MTX-treated animals to determine systemic effects of MTX at a distant site. One hour after administration of isotope, animals were sacrificed by cervical dislocation, and treated backskin and untreated abdominal skin was obtained. Epidermis was removed after incubating the skin specimens for 1 hr at 37°C in 2 M sodium bromide. DNA was extracted and assayed using the technique described by Halprin et al (1979) J Invest Derm 73:359-363. Results of epidermal DNA synthesis were calculated as counts/minute/ug of DNA. The effects of MTX treatment on DNA synthesis of the back and abdomen were expressed as percentage of the DNA synthesis of Vehicle N treated back skin and untreated abdomin in control animals."}, "hairless mouse skin": {"test_system": "hairless mouse skin", "assay": "Skin changes after topical MTX in normal and essential fatty acid deficient hairless mice", "format": "in vivo, HRS/J albino hairless mice", "conditions": "three daily applications of 2% MTX in Vehicle N, untreated abdominal skin not similarly affected", "description": "as §1\nas §2, with “Topical MTX preparations at various concentrations or vehicle control in the amount of 0.05 ml were applied to the backskin area of 1.5 cm by 3 cm daily for 1 or 3 days. Six” for “Six”, “One hour after administration of isotope, animals were sacrificed by cervical dislocation, and treated backskin and untreated abdominal skin was obtained. Epidermis was removed after incubating the skin specimens for 1 hr at 37°C in 2 M sodium bromide. DNA was extracted and assayed using the technique described by Halprin et al (1979) J Invest Derm 73:359-363.” left out, “animals. […]” for “animals.”"}, "epidermal DNA synthesis [3]": {"test_system": "epidermal DNA synthesis", "assay": "In vivo epidermal labeling index (DNA synthesis) in the mini-pig model", "parameters": "species or system Mini-pigs", "conditions": "for Epidermal Labeling Index: applied daily for 7 days, mini-pig dorsal skin", "description": "The formulations of Example III were tested for effect on in vivo DNA synthesis in the mini-pig model. Mini-pig skin closely resembles human skin and the effect of a drug on epidermal cell proliferation is a recognized test for the effectiveness of therapeutic protocols for hyperproliferative skin disease.\nMini-pigs were obtained from Charles River Laboratories, Inc. (Wilmington, MA). Drug preparations were applied to small areas of dorsal skin (ca 1 inch square) according to the selected application schedules. Six hours following the last drug application, tritiated thymidine was injected into the drug treatment sites for autoradiographic assessment of epidermal proliferation as measured by epidermal labeling index. Weinstein & and Van Scott, (1965) J. Invest. Derm. 44:413\nA vehicle containing various concentrations of MTX was applied daily for 7 days. Tritiated deoxyuridine was injected into the treatment sites on day 7, as well as in untreated control area. DNA synthesis was measured as described in Example II.\nFormulations were applied daily for 7 days. […] Autoradiographs were scored at 4 wk."}, "[4]": {"test_system": "psoriatic epidermal DNA synthesis", "assay": "Intradermal administration of MTX", "format": "in vivo", "conditions": "administered intradermally, compared with systemic MTX", "text": "Thus, it has been discovered that MTX or its analogs can be administered topically in an effective manner to skin afflicted with a hyperproliferative epithelial disease avoiding, therefore, the serious side effects associated with systemic MTX administration."}, "psoriasis": {"test_system": "psoriasis", "conditions": "0.1% and 0.5% MTX in vehicle with 2.5% C-10-methylsulfoxide, six patients, daily for nine days; cited from earlier work"}, "[5]": {"conditions": "prior-art topical MTX preparations, in vitro and in vivo; cited from earlier work"}, "[6]": {"conditions": "0.1% Methotrexate in topical gel containing about 3% Azone"}, "[7]": {"conditions": "0.5% Methotrexate in topical gel containing about 3% Azone"}, "[8]": {"conditions": "1.0% Methotrexate in topical gel containing about 3% Azone"}},
  "data": [
    {"smiles": "CN(Cc1cnc2nc(N)nc(N)c2n1)c1ccc(C(=O)N[C@@H](CCC(=O)O)C(=O)O)cc1", "note": "[MTX, Methotrexate]", "values": [
      {"measurement": "Cumulative Penetration 48 hr", "setting": "[1]; [6]", "result": "0.6 ± 0.2", "unit": "µg"},
      {"measurement": "Epidermal Content", "setting": "[1]; [6]", "result": "3.9 ± 0.3", "unit": "µg"},
      {"measurement": "Cumulative Penetration 48 hr", "setting": "[1]; [7]", "result": "7.5 ± 1.4", "unit": "µg"},
      {"measurement": "Epidermal Content", "setting": "[1]; [7]", "result": "24.1 ± 8.1", "unit": "µg"},
      {"measurement": "Cumulative Penetration 48 hr", "setting": "[1]; [8]", "result": "18.7 ± 6.1", "unit": "µg"},
      {"measurement": "Epidermal Content", "setting": "[1]; [8]", "result": "36.0 ± 11.7", "unit": "µg"},
      {"measurement": "effect on DNA synthesis in back skin and untreated abdominal skin", "setting": "epidermal DNA synthesis [2]; four daily applications of MTX in Vehicle N", "result": "total suppression of DNA synthesis"},
      {"measurement": "effect on DNA synthesis", "setting": "epidermal DNA synthesis [2]; single application of MTX in Vehicle N", "result": "ineffective"},
      {"measurement": "effect on DNA synthesis in treated skin", "setting": "epidermal DNA synthesis [2]; three daily applications of 1% MTX in Vehicle N, 6 hr after the last treatment", "result": "produced inhibition of DNA synthesis"},
      {"measurement": "systemic effect on DNA synthesis in untreated abdominal skin", "setting": "epidermal DNA synthesis [2]; three daily applications of 2% MTX in Vehicle N, at 54 hr (6 hr after the last treatment)", "result": "no significant (p < 0.001) systemic methotrexate effect"},
      {"measurement": "suppression of epidermal DNA synthesis in treated back skin", "setting": "epidermal DNA synthesis [2]; three daily applications of 2% MTX in Vehicle N, at 54 hr", "result": 50, "unit": "%"},
      {"measurement": "local and systemic effect on DNA synthesis", "setting": "epidermal DNA synthesis [2]; three daily applications of 2% MTX in Vehicle N, at 72 hr, 24 hr after the last treatment", "result": "both local and systemic effects were obtained"},
      {"measurement": "suppression of epidermal DNA synthesis in treated back skin", "setting": "epidermal DNA synthesis [2]; three daily applications of 2% MTX in Vehicle N, at 72 hr", "result": 75, "unit": "%"},
      {"measurement": "effect on DNA synthesis", "setting": "epidermal DNA synthesis [2]; three daily applications of MTX in Vehicle N at concentrations lower than 1%", "result": "no local or systemic effect"},
      {"measurement": "effect on epidermal DNA synthesis", "setting": "epidermal DNA synthesis [2]; topical MTX (0.5%) in N-decylmethylsulfoxide", "result": "no effect on epidermal DNA synthesis"},
      {"measurement": "effect on epidermis of treated skin", "setting": "hairless mouse skin", "result": "marked epidermal atrophy"},
      {"measurement": "Epidermal Labeling Index", "setting": "epidermal DNA synthesis [3]; 0.5% Methotrexate in gel with about 3% Azone", "result": "0.0 ± 0.0", "unit": "%"},
      {"measurement": "labeling intensity (rate of DNA synthesis)", "setting": "epidermal DNA synthesis [3]; 0.5% and 1.0% MTX in Azone gel, daily for 7 days, compared to the vehicle control", "result": "slight decrease in labeling intensity"},
      {"measurement": "Epidermal Labeling Index", "setting": "epidermal DNA synthesis [3]; 1.0% Methotrexate in gel with about 3% Azone", "result": "0.8 ± 1.4", "unit": "%"},
      {"measurement": "biochemical effects and biological actions", "setting": "[4]", "result": "same biochemical effects (inhibition of psoriatic epidermal DNA synthesis) and biological actions (mitotic inhibition and damaged cell production) as systemic MTX"},
      {"measurement": "clinical improvement", "setting": "psoriasis", "result": "no significant improvement in any of the patients"},
      {"measurement": "percutaneous penetration of human skin", "setting": "[5]", "result": "negligible percutaneous penetration"}
    ]}
  ]
}
